Measurements published in PubChem BioAssay (NCI).
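96-well plates; 48 h exposure; 5 concentrations. Endpoints by linear interpolation between flanking doses. Not reached: highest tested concentration assigned. GI50 is the concentration that inhibits growth by half. At the TGI there is no net growth.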

Experiments:
Assay in all cases: NCI anticancer screen, dose series, 48 h
[1] = test system: 786-0 renal
[2] = test system: A549 NSCLC
[3] = test system: ACHN renal
[4] = test system: CAKI-1 renal
[5] = test system: CCRF-CEM leukemia
[6] = test system: DU-145 prostate
[7] = test system: EKVX NSCLC
[8] = test system: HCC-2998 colon
[9] = test system: HCT-116 colon
[10] = test system: HCT-15 colon
[11] = test system: HOP-62 NSCLC
[12] = test system: HS 578T breast
[13] = test system: HT29 colon
[14] = test system: IGROV1 ovarian
[15] = test system: K-562 leukemia
[16] = test system: KM12 colon
[17] = test system: LOX IMVI melanoma
[18] = test system: M14 melanoma
[19] = test system: MALME-3M melanoma
[20] = test system: MCF7 breast
[21] = test system: MDA-MB-231 breast
[22] = test system: MDA-MB-435
[23] = test system: MOLT-4 leukemia
[24] = test system: NCI-H23 lung
[25] = test system: NCI-H460 lung
[26] = test system: NCI-H522 lung
[27] = test system: NCI/ADR-RES ovarian
[28] = test system: OVCAR-3 ovarian
[29] = test system: OVCAR-4 ovarian
[30] = test system: OVCAR-5 ovarian
[31] = test system: PC-3 prostate
[32] = test system: SF-295 CNS
[33] = test system: SF-539 CNS
[34] = test system: SK-MEL-28 melanoma
[35] = test system: SK-MEL-5 melanoma
[36] = test system: SNB-19 CNS
[37] = test system: SNB-75 CNS
[38] = test system: SR leukemia
[39] = test system: SW-620 colon
[40] = test system: T-47D breast
[41] = test system: TK-10 renal
[42] = test system: U251 CNS
[43] = test system: UACC-257 melanoma
[44] = test system: UACC-62 melanoma
[45] = test system: UO-31 renal
[46] = test system: A498 renal
[47] = test system: COLO 205 colon
[48] = test system: HL-60(TB) leukemia
[49] = test system: HOP-92 NSCLC
[50] = test system: NCI-H226 lung
[51] = test system: RPMI-8226 leukemia
[52] = test system: RXF 393 renal
[53] = test system: SF-268 CNS
[54] = test system: SK-MEL-2 melanoma
[55] = test system: SK-OV-3 ovarian
[56] = test system: SN12C renal

Q: Cc1ccc2/c(=C/c3ccc(N(C)C)cc3)c3cc(-c4ccccc4)[n+](C)n3c2c1 was tested. Which GI50 [1] did it give?
A: 305 nM

Q: What about the TGI [1] of the same molecule?
A: 2920 nM

Q: What about the GI50 [2] of the same molecule?
A: 98.7 nM

Q: And the TGI [2]?
A: > 100000 nM

Q: What about the GI50 [3] of the same molecule?
A: 175 nM

Q: What about the GI50 [4] of the same molecule?
A: 1570 nM

Q: What about the TGI [4] of the same molecule?
A: 6580 nM

Q: What about the GI50 [5] of the same molecule?
A: 26.9 nM

Q: What about the GI50 [6] of the same molecule?
A: 47.3 nM

Q: And the TGI [6]?
A: 4370 nM

Q: And the GI50 [7]?
A: 64.3 nM

Q: And the TGI [7]?
A: 7950 nM

Q: And the GI50 [8]?
A: < 19.9 nM

Q: What about the TGI [8] of the same molecule?
A: 197 nM

Q: And the GI50 [9]?
A: 40.6 nM

Q: And the TGI [9]?
A: > 100000 nM

Q: What about the GI50 [10] of the same molecule?
A: 824 nM

Q: What about the TGI [10] of the same molecule?
A: > 100000 nM

Q: What about the GI50 [11] of the same molecule?
A: 257 nM

Q: And the TGI [11]?
A: 7330 nM

Q: What about the GI50 [12] of the same molecule?
A: 35 nM

Q: What about the TGI [12] of the same molecule?
A: 2890 nM

Q: What about the GI50 [13] of the same molecule?
A: 41.1 nM

Q: What about the TGI [13] of the same molecule?
A: > 100000 nM

Q: What about the GI50 [14] of the same molecule?
A: 501 nM

Q: What about the GI50 [15] of the same molecule?
A: < 25.5 nM

Q: And the TGI [15]?
A: > 100000 nM

Q: And the GI50 [16]?
A: 20.9 nM

Q: And the TGI [16]?
A: 120 nM

Q: And the GI50 [17]?
A: < 10 nM

Q: And the TGI [17]?
A: > 100000 nM

Q: What about the GI50 [18] of the same molecule?
A: 59.1 nM

Q: And the TGI [18]?
A: 2540 nM

Q: What about the GI50 [19] of the same molecule?
A: 28.5 nM

Q: What about the TGI [19] of the same molecule?
A: 1170 nM

Q: What about the GI50 [20] of the same molecule?
A: 36 nM

Q: And the TGI [20]?
A: 11300 nM

Q: And the GI50 [21]?
A: 33.7 nM

Q: And the TGI [21]?
A: 1060 nM

Q: What about the GI50 [22] of the same molecule?
A: 37 nM

Q: And the TGI [22]?
A: 1660 nM

Q: And the GI50 [23]?
A: 38.3 nM

Q: And the TGI [23]?
A: > 100000 nM

Q: And the GI50 [24]?
A: 83.6 nM

Q: What about the TGI [24] of the same molecule?
A: 1900 nM

Q: What about the GI50 [25] of the same molecule?
A: 25 nM

Q: What about the TGI [25] of the same molecule?
A: 1380 nM

Q: And the GI50 [26]?
A: 54.7 nM

Q: And the TGI [26]?
A: > 100000 nM

Q: And the GI50 [27]?
A: 6410 nM

Q: And the TGI [27]?
A: > 100000 nM

Q: What about the GI50 [28] of the same molecule?
A: 1100 nM

Q: And the TGI [28]?
A: 47500 nM

Q: What about the GI50 [29] of the same molecule?
A: 816 nM

Q: And the TGI [29]?
A: 20200 nM

Q: What about the GI50 [30] of the same molecule?
A: 456 nM

Q: What about the TGI [30] of the same molecule?
A: 4740 nM

Q: What about the GI50 [31] of the same molecule?
A: 25.1 nM

Q: What about the TGI [31] of the same molecule?
A: 3900 nM

Q: And the GI50 [32]?
A: 352 nM

Q: What about the TGI [32] of the same molecule?
A: 3310 nM

Q: What about the GI50 [33] of the same molecule?
A: 45.6 nM

Q: And the TGI [33]?
A: 2210 nM

Q: What about the GI50 [34] of the same molecule?
A: 146 nM

Q: And the TGI [34]?
A: 3700 nM

Q: What about the GI50 [35] of the same molecule?
A: 34.4 nM

Q: What about the TGI [35] of the same molecule?
A: 169 nM

Q: What about the GI50 [36] of the same molecule?
A: 96.9 nM

Q: And the TGI [36]?
A: > 44100 nM

Q: And the GI50 [37]?
A: 144 nM

Q: What about the TGI [37] of the same molecule?
A: 2020 nM

Q: What about the GI50 [38] of the same molecule?
A: < 10 nM

Q: What about the GI50 [39] of the same molecule?
A: 186 nM

Q: And the TGI [39]?
A: 1510 nM

Q: What about the GI50 [40] of the same molecule?
A: 95.6 nM

Q: And the TGI [40]?
A: > 100000 nM

Q: And the GI50 [41]?
A: 266 nM

Q: And the TGI [41]?
A: 2360 nM

Q: What about the GI50 [42] of the same molecule?
A: < 10 nM

Q: And the GI50 [43]?
A: 30.7 nM

Q: And the TGI [43]?
A: 1710 nM

Q: And the GI50 [44]?
A: 29.2 nM

Q: What about the TGI [44] of the same molecule?
A: 252 nM

Q: What about the GI50 [45] of the same molecule?
A: 920 nM

Q: Which results are given for CCCS(=O)(=O)c1nc(NC2CC2)cc(-c2ccc3c(ccn3C3CC(C)(C)NC(C)(C)C3)c2)n1?
A: GI50 [1]: 1210 nM; TGI [1]: 2640 nM; GI50 [46]: 1810 nM; TGI [46]: 3370 nM; GI50 [3]: 1770 nM; TGI [3]: 3350 nM; GI50 [4]: 1560 nM; TGI [4]: 3050 nM; GI50 [5]: 2020 nM; TGI [5]: 4800 nM; GI50 [47]: 1840 nM; TGI [47]: 3390 nM; GI50 [6]: 1710 nM; TGI [6]: 3190 nM; GI50 [7]: 1840 nM; TGI [7]: 3710 nM; GI50 [9]: 1680 nM; TGI [9]: 3220 nM; GI50 [10]: 1570 nM; TGI [10]: 3120 nM; GI50 [48]: 1750 nM; TGI [48]: 3730 nM; GI50 [11]: 1730 nM; TGI [11]: 3400 nM; GI50 [49]: 1460 nM; TGI [49]: 3080 nM; GI50 [12]: 2100 nM; TGI [12]: 4930 nM; GI50 [13]: 1810 nM; TGI [13]: 3380 nM; GI50 [14]: 1970 nM; TGI [14]: 3810 nM; GI50 [15]: 777 nM; TGI [15]: 2480 nM; GI50 [16]: 1830 nM; TGI [16]: 3670 nM; GI50 [17]: 1670 nM; TGI [17]: 3170 nM; GI50 [18]: 1740 nM; TGI [18]: 3240 nM; GI50 [22]: 1470 nM; TGI [22]: 2950 nM; GI50 [23]: 2020 nM; TGI [23]: 4570 nM; GI50 [50]: 1740 nM; TGI [50]: 3710 nM; GI50 [25]: 1800 nM; TGI [25]: 3550 nM; GI50 [27]: 2000 nM; TGI [27]: 4460 nM; GI50 [28]: 1840 nM; TGI [28]: 3420 nM; GI50 [31]: 1780 nM; TGI [31]: 3470 nM; GI50 [51]: 2000 nM; TGI [51]: 5270 nM; GI50 [52]: 1640 nM; TGI [52]: 3440 nM; GI50 [53]: 1880 nM; TGI [53]: 3890 nM; GI50 [32]: 1820 nM; TGI [32]: 3470 nM; GI50 [54]: 1880 nM; TGI [54]: 3410 nM; GI50 [35]: 1720 nM; TGI [35]: 3150 nM; GI50 [55]: 1860 nM; TGI [55]: 3460 nM; GI50 [56]: 1880 nM; TGI [56]: 3800 nM; GI50 [37]: 1450 nM; TGI [37]: 2860 nM; GI50 [38]: 256 nM; TGI [38]: 784 nM; GI50 [41]: 1520 nM; TGI [41]: 2980 nM; GI50 [45]: 1600 nM; TGI [45]: 3160 nM
